Patent US9309200B2, “Benzazepine derivatives, pharmaceutical compositions containing them, and their use in therapy” (AbbVie Deutschland GmbH & Co. KG, priority 2011, dated 2016)

What was measured:
[1] = Metabolic stability in human liver microsomes (microsomal clearance); assay type: in vitro ADME; details: human liver microsomes 0.25 mg protein/ml, 0.5 μM test substance, NADPH 1.0 mM, pH 7.4, 37° C.
Experimental: The metabolic stability of a compound can be measured for example by incubating a solution of this compound with liver microsomes from particular species (for example rat, dog or human) and determining the half-life of the compound under these conditions (R S Obach, Curr Opin Drug Discov Devel. 2001, 4, 36-44). It is possible in this connection to conclude from an observed longer half-life that the metabolic stability of the compound is improved. The stability in the presence of human liver microsomes is of particular interest because it makes it possible to predict the metabolic degradation of the compound in the human liver. Compounds with increased metabolic stability (measured in the liver microsome test) are therefore probably also degraded more slowly in the liver. The slower metabolic degradation in the liver may lead to higher and/or longer-lasting concentrations (active levels) of the compound in the body, so that the elimination half-life of the compounds of the invention is increased. Increased and/or longer-lasting active levels may lead to a better activity of the compound in therapeutic treatment. In addition, an improved metabolic stability may lead to an increased bioavailability after oral administration, because the compound is subject, after absorption in the intestine, to less metabolic degradation in the liver (so-called first pass effect). An increased oral bioavailability may, owing to an increased concentration (active level) of the compound, lead to a better activity of the compound after oral administration.
Metabolic stability was determined as follows:
0.5 μM test substance was preincubated together with human liver microsomes (0.25 mg of microsomal protein/ml) in 0.05 M potassium phosphate buffer of pH 7.4 in microtiter plates at 37° C. for 5 min. The reaction was started by adding NADPH (1.0 mM). After 0, 5, 10, 15, 20 and 30 min, 65 μl aliquots were removed, and the reaction was immediately stopped and cooled with twice the amount of ethanol. The samples were frozen until analyzed. The remaining concentration of undegraded test substance was determined by LC MSMS. The half-life (T½) was determined from the gradient of the signal of test substance/unit time plot, allowing to calculate the half-life of the test substance, assuming first order kinetics, from the decrease in the concentration of the compound with time. The microsomal clearance (mCl) was calculated from mCl=ln 2/T½/(content of microsomal protein in mg/ml)×1000 (modified from references: Di, The Society for Biomolecular Screening, 2003, 453-462; Obach, DMD, 1999 vol 27. N 11, 1350-1359).

[2] = target: T1, human GlyT1c transporter (Homo sapiens, UniProt P48067); experiment: Radioligand binding assay using recombinant CHO cell membranes expressing human GlyT1; details: read-out: radioligand binding Kiapp
T1 construct: expressed in transfected cells; host or cells: recombinant CHO cells (membranes); the uptake assay names the line hGlyT1c_5_CHO
T1 sequence (P48067 1-706): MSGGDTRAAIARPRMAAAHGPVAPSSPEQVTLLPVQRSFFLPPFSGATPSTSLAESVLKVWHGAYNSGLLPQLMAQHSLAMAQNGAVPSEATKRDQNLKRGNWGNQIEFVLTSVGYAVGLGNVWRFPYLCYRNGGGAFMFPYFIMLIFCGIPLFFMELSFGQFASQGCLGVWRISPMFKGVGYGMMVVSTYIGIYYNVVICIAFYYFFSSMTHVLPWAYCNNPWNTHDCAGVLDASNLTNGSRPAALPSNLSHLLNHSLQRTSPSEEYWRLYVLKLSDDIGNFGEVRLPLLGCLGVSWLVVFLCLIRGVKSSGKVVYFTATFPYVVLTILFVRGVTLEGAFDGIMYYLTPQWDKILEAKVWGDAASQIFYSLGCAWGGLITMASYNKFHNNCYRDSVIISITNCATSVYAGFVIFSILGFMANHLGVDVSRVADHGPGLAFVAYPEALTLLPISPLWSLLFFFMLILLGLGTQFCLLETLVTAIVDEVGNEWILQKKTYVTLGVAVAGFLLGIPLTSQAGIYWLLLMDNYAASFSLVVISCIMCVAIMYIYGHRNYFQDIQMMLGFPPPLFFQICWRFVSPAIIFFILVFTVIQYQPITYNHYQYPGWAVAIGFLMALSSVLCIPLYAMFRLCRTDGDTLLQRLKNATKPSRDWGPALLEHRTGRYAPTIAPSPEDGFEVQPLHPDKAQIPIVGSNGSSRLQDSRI
Experimental: 2. Radioligand Binding Assays Using Recombinant CHO Cell Membranes Expressing Human GlyT1:
Radioligand binding to human GlyT1c transporter-expressing membranes was determined as described in Mezler et al., Molecular Pharmacology 74:1705-1715, 2008.

- human mCl [1]: ≦100 μl/min/mg
- Ki [2]: ≤ 1 µM
Structure (SMILES): CCCS(=O)(=O)NCCOc1ccc2c(c1)C(Cc1ccccc1)NCCO2 (centres unmarked) [Example 51, Propane-1-sulfonic acid [2-(5-benzyl-2,3,4,5-tetrahydro-benzo[f][1,4]oxazepin-7-yloxy)-ethyl]-amide]
